Results taken from article PMC5056396, “Hexokinase I N-terminal based peptide prevents the VDAC1-SOD1 G93A interaction and re-establishes ALS cell viability” (Scientific Reports, 2016).

Tests used:
[1] = tested on: VDAC1-SOD1 G93A interaction; assay: In vitro VDAC1-SOD1 G93A binding assay after pre-incubation with HK1 or peptide (western blot, densitometry); design: species or system human; conditions: for reduction of SOD1 G93A in VDAC1-bound fraction: 6.25 μM SOD1 G93A, n = 3
Text: It is well known that HKs bind to VDAC1 in physiological conditions. We hypothesized that the available area for interaction with soluble proteins is a limited, exposed portion of the transmembrane pore VDAC1. […] For this reason, we repeated the VDAC1-SOD1 G93A binding assay, adding increasing concentrations of HK1. […] The reduction corresponds to the increase of HK1 in VDAC1-bound fraction, and it is proportional to the HK1 concentrations added in the assay (Fig. 3A).
In order to evaluate the NHK1 ability to interfere with VDAC1-SOD1 G93A interaction, a binding assay was performed. Increasing concentrations of NHK1 were added to immobilized-VDAC1, before SOD1 G93A addition. […] In fact, a 20-fold smaller concentration of peptide was used to obtain a result similar to that obtained by using the whole HK1 in the previous experiment (see Fig. 3A).
Recombinant VDAC1 was immobilized onto Ni-NTA Magnetic Agarose Beads (Qiagen) by exploiting its 6xHis-tag, according with manufacture’s protocol. For each experiment, a large excess of VDAC1 (30 μM) were incubated with 50 μL of beads suspension in Interaction Buffer (IB) (300 mM NaCl, 50 mM NaH2PO4, 20 mM imidazole, pH 8.0) to saturate all sites. Beads were collected using the magnet-based system DynaMag-2 (Life Technologies) and washed twice in Wash Buffer (300 mM NaCl, 50 mM NaH2PO4, 20 mM imidazole, 0.05% Tween-20, pH 6.3) to remove any excess of VDAC1. Beads-immobilized VDAC1 were incubated with 6.25 μM SOD1 WT or G93A, for 1 h at RT, under constant shaking, in 100 μL of IB. The assay was also performed by pre-incubating immobilized-VDAC1 for an extra 1 h with increasing concentration of purified human HK1 (0, 100, 200 μM) or NHK1 peptide (0, 5, 10, 25 μM), before SOD1 G93A addition. Beads were recovered using Dyna-Mag2 system and VDAC1-complexes were eluted from beads using 50 μL of Elution Buffer (300 mM NaCl, 50 mM NaH2PO4, 300 mM imidazole, pH 3.5). Any protein in VDAC1-bound and -unbound fractions was evaluated by western blot. Three independent experiments were performed for each condition tested.

[2] = tested on: human VDAC1 reconstituted into PLB; assay: VDAC1 channel conductance in planar lipid bilayer (PLB); type: biochemical; conditions: for effect on single channel VDAC1 conductance: +25 mV, 0.2 μM SOD1 proteins or 15 μM peptide; for effect on voltage-dependence of VDAC1, triangular voltage ramps: symmetric 1 M KCl, ramps 0 to ±50 mV
Text: Purified VDAC1 was reconstituted into a planar phospholipid bilayer (PLB) and its channel conductance was monitored before and after addition of SOD1 proteins, on cis or trans side of the membrane. […] Moreover, the effect of SOD1 proteins on the voltage-dependence of VDAC1 was monitored by triangular voltage ramps from 0 to ±50 mV. […] The current linearly follows the voltage applied up to about ±25 mV, where VDAC1 decreases its channel conductance through step-like transitions, remaining in low-conducting states.
Under standard experimental condition (1 M KCl and an applied potential of +25 mV) the VDAC1 channel was mainly in low-conducting closed states. […] The effect of NHK1 on the channel conductance is even more evident by plotting the amplitude values obtained in the current traces as a function of the number of events. While for VDAC1 alone the amplitude values appear as a main peak corresponding to the closed states (Fig. 4B), the presence of NHK1 caused a different distribution of events: an additional, different peak corresponding to the open state was visible, together with the closed states peak (Fig. 4C). […] The effect of NHK1 on the voltage-dependence of VDAC1 was monitored by triangular voltage ramps. […] In this experiment, indeed, VDAC1 completely loose, very precociously (already at ±15 mV applied), its ability to linearly respond to the applied voltage: a continuous switch from open to closed states was observed, especially at positive potentials. […] Upon NHK1 incubation, VDAC1 current transitions at positive voltages are very noisy and pass through different sub-conductance states (Fig. 4F).
Purified VDAC1 was reconstituted into a Planar Lipid Bilayer (PLB) apparatus (Warner Instruments, Hamden, CT, USA), previously described. Bilayers were prepared using asolectin (Sigma) dissolved in decane (Sigma) containing 1% chloroform (Sigma) across a 200 μm hole in a derlin cuvette (Warner Instruments). Experiments were performed in 1 M KCl, 10 mM Hepes, pH 7.0[40][46]. Control experiments using empty membrane and/or detergents were performed to avoid activity in any of the above solutions. Data were acquired using a Bilayer Clamp amplifier (Warner Instruments) at 100 μs/point, filtered at 200 Hz and analyzed offline using Clampfit 10.4 program set (Axon Instruments, Union City, CA, USA). Single channel analysis of VDAC1 was performed in presence or not of 0.2 μM of SOD1 WT or G93A, 15 μM NHK1 or ScNHK1 peptide.

NSC34-SOD1G93A cells = assay: Mitochondrial membrane potential (ΔΨm) by flow cytometry; type: cell-based, mouse; conditions: TMRM
Description: To evaluate the NHK1 influence on mitochondrial functionality, mitochondrial membrane potential variation (ΔΨm) was assayed in the presence of NHK1 peptide or HK1. ΔΨm is related to the ATP production by oxidative phosphorylation; therefore, it is considered an indication of good mitochondrial and cellular health. Using mitochondria-targeted fluorescent probes, we estimated in flow cytometry the rate of mitochondrial depolarization. NSC34-SOD1G93A cells shown a high level of depolarized mitochondria compared to NSC34-SOD1WT. […] Similarly to NHK1 peptide, the expression of the whole HK1 reduced the depolarized mitochondria of about 15% (Fig. 7C).
ΔΨm was measured using tetramethyl-rhodamine methyl ester (TMRM) or Rhodamine 123 (RH123) (Molecular Probes) according to the excitation/emission wavelength of the transfection reporter or of the transfected fluorescent protein used. Both probes accumulates in active mitochondria due to their positive charge, whereby the reduction of ΔΨm leads to the release of fluorescent probes. Transfected NSC34-SOD1WT and NSC34-SOD1G93A cells were washed with PBS and incubated for 30 min at 37 °C with Krebs Ringer Buffered Saline supplemented with either 200 nM TMRM or 0.1 μg/mL RH123 and 20 μM Verapamil (as a multi drug-resistant pump inhibitor) (Sigma). Cells were then harvested and immediately analyzed by flow cytometry. Cells were excited by an air-cooled argon 488 nm laser, reading the GFP fluorescence of HK1-GFP or RH123 fluorescence in FL1 log mode; TMRM and mtDsRED used as transfection reporter of NHK1 peptide were read on FL3 log mode. Only viable cells detected by reading the scattering indicated as FSC and SSC, were considered for our analysis. The threshold physiological value of ΔΨm was estimated by using cells exposed to 1 μM of the uncoupling agent FCCP as a negative control. Data reported are representative for three sets of independent experiments, each performed at least in triplicate and based on 20.000 events for each group. Data were statistical analyzed by chi-square test. A p < 0,001 was taken as significant.

| Sequence | effect on SOD1 G93A in VDAC1-bound fraction ([1]; scramble control, same assay) | effect on single channel VDAC1 conductance ([2]; 1 M KCl) | effect on voltage-dependence of VDAC1, triangular voltage ramps [2] | partial recovery of physiological ΔΨm (NSC34-SOD1G93A cells; NSC34-SOD1G93A expressing scramble peptide) | reduction of SOD1 G93A in VDAC1-bound fraction ([1]; 10 μM peptide pre-incubated 1 h) [%] | reduction of SOD1 G93A in VDAC1-bound fraction ([1]; 25 μM peptide pre-incubated 1 h) [%] | negative membrane potential at which regions of decreased slope already appear (I-V plot) ([2]; 1 M KCl, upon peptide incubation) [mV] | reduction of depolarized mitochondria (NSC34-SOD1G93A cells; NSC34-SOD1G93A expressing peptide, n = 3) [%] |
| --- | --- | --- | --- | --- | --- | --- | --- | --- |
| FAQLTIALAYY [ScNHK1, scramble peptide (…) synthetized and used as control, reference compound] | No similar effect | No influence on the electrophysiological activity | no difference was found | not |  |  |  |  |
| IAAQLLAYYFT [NHK1, peptide corresponding to residues 2–12 (N-terminal region) of human HK1 protein (…)] |  | induced several fast and reversible events of VDAC1 low-conducting closed states | strongly affected the channel voltage-dependence of VDAC1 |  | 40 | 80 | −10 | 20 |
